Assays:
[1] = Inhibition of ABCB1 in human HeLa S3 cells assessed as potentiation of doxorubicin-induced cytotoxicity by measuring doxorubicin IC50 at 5 uM measured after 72 hrs by SRB assay (Rvb = 242 +/- 5 nM)
[2] = Inhibition of ABCB1 in human HeLa S3 cells assessed as potentiation of doxorubicin-induced cytotoxicity by measuring doxorubicin IC50 at 2.5 uM measured after 72 hrs by SRB assay (Rvb = 242 +/- 5 nM)
[3] = Inhibition of ABCB1 in FLp-In-293 cells assessed as potentiation of paclitaxel-induced cytotoxicity by measuring paclitaxel IC50 at 5 uM measured after 72 hrs by SRB assay (Rvb = 11.8 +/- 1.13 nM)
[4] = Inhibition of human full-length ABCB1 expressed in FLp-In-293 cells assessed as potentiation of vincristine-induced cytotoxicity by measuring vincristine IC50 at 2.5 uM measured after 72 hrs by SRB assay (Rvb = 823 +/- 16 nM)
[5] = Inhibition of human full-length ABCB1 expressed in FLp-In-293 cells assessed as potentiation of vincristine-induced cytotoxicity by measuring vincristine IC50 at 5 uM measured after 72 hrs by SRB assay (Rvb = 823 +/- 16 nM)
[6] = Inhibition of ABCB1 in human HeLa S3 cells assessed as potentiation of paclitaxel-induced cytotoxicity by measuring paclitaxel IC50 at 2.5 uM measured after 72 hrs by SRB assay (Rvb = 26.50 +/- 4.1 nM)
[7] = Inhibition of ABCB1 in FLp-In-293 cells assessed as potentiation of paclitaxel-induced cytotoxicity by measuring paclitaxel IC50 at 2.5 uM measured after 72 hrs by SRB assay (Rvb = 11.8 +/- 1.13 nM)
[8] = Inhibition of ABCB1 in human HeLa S3 cells assessed as potentiation of vincristine-induced cytotoxicity by measuring vincristine IC50 at 5 uM measured after 72 hrs by SRB assay (Rvb = 4.55 +/- 0.28 nM)
[9] = Inhibition of ABCB1 in FLp-In-293 cells assessed as potentiation of vincristine-induced cytotoxicity by measuring vincristine IC50 at 2.5 uM measured after 72 hrs by SRB assay (Rvb = 6 +/- 0.2 nM)
[10] = Inhibition of ABCB1 in human KB-VIN cells assessed as potentiation of vincristine-induced cytotoxicity by measuring vincristine IC50 at 5 uM measured after 72 hrs by SRB assay (Rvb = 2867 +/- 142 nM)
[11] = Inhibition of ABCB1 in FLp-In-293 cells assessed as potentiation of vincristine-induced cytotoxicity by measuring vincristine IC50 at 5 uM measured after 72 hrs by SRB assay (Rvb = 6 +/- 0.2 nM)
[12] = Inhibition of ABCB1 in human KB-VIN cells assessed as potentiation of paclitaxel-induced cytotoxicity by measuring paclitaxel IC50 at 2.5 uM measured after 72 hrs by SRB assay (Rvb = 1762 +/- 63 nM)
[13] = Inhibition of ABCB1 in human KB-VIN cells assessed as potentiation of doxorubicin-induced cytotoxicity by measuring doxorubicin IC50 at 5 uM measured after 72 hrs by SRB assay (Rvb = 4736 +/- 59 nM)
[14] = Inhibition of ABCB1 in FLp-In-293 cells assessed as potentiation of doxorubicin-induced cytotoxicity by measuring doxorubicin IC50 at 2.5 uM measured after 72 hrs by SRB assay (Rvb = 80 +/- 10 nM)
[15] = Inhibition of ABCB1 in human HeLa S3 cells assessed as potentiation of vincristine-induced cytotoxicity by measuring vincristine IC50 at 2.5 uM measured after 72 hrs by SRB assay (Rvb = 4.55 +/- 0.28 nM)
[16] = Inhibition of ABCB1 in human KB-VIN cells assessed as potentiation of paclitaxel-induced cytotoxicity by measuring paclitaxel IC50 at 5 uM measured after 72 hrs by SRB assay (Rvb = 1762 +/- 63 nM)
[17] = Inhibition of ABCB1 in human KB-VIN cells assessed as potentiation of doxorubicin-induced cytotoxicity by measuring doxorubicin IC50 at 2.5 uM measured after 72 hrs by SRB assay (Rvb = 4736 +/- 59 nM)
[18] = Inhibition of ABCB1 in FLp-In-293 cells assessed as potentiation of doxorubicin-induced cytotoxicity by measuring doxorubicin IC50 at 5 uM measured after 72 hrs by SRB assay (Rvb = 80 +/- 10 nM)
[19] = Inhibition of ABCB1 in human HeLa S3 cells assessed as potentiation of paclitaxel-induced cytotoxicity by measuring paclitaxel IC50 at 5 uM measured after 72 hrs by SRB assay (Rvb = 26.50 +/- 4.1 nM)
[20] = Inhibition of human full-length ABCB1 expressed in FLp-In-293 cells assessed as potentiation of paclitaxel-induced cytotoxicity by measuring paclitaxel IC50 at 5 uM measured after 72 hrs by SRB assay (Rvb = 797 +/- 73 nM)
[21] = Inhibition of human full-length ABCB1 expressed in FLp-In-293 cells assessed as potentiation of doxorubicin-induced cytotoxicity by measuring doxorubicin IC50 at 5 uM measured after 72 hrs by SRB assay (Rvb = 2264 +/- 196 nM)
[22] = Inhibition of ABCB1 in human KB-VIN cells assessed as potentiation of vincristine-induced cytotoxicity by measuring vincristine IC50 at 2.5 uM measured after 72 hrs by SRB assay (Rvb = 2867 +/- 142 nM)
[23] = Inhibition of human full-length ABCB1 expressed in FLp-In-293 cells assessed as potentiation of doxorubicin-induced cytotoxicity by measuring doxorubicin IC50 at 2.5 uM measured after 72 hrs by SRB assay (Rvb = 2264 +/- 196 nM)
[24] = Inhibition of human full-length ABCB1 expressed in FLp-In-293 cells assessed as potentiation of paclitaxel-induced cytotoxicity by measuring paclitaxel IC50 at 2.5 uM measured after 72 hrs by SRB assay (Rvb = 797 +/- 73 nM)

SMILES: COc1ccc(-c2cc(OC(C)=O)c3c(-c4cccs4)c(NC(=O)c4ccccc4C)oc3c2)cc1
- IC50 [1]: 103 nM
- IC50 [2]: 116 nM
- IC50 [3]: 7.2 nM
- IC50 [4]: 84 nM
- IC50 [5]: 8.9 nM
- IC50 [6]: 11 nM
- IC50 [7]: 9.1 nM
- IC50 [8]: 3.7 nM
- IC50 [9]: 0.88 nM
- IC50 [10]: 6.5 nM
- IC50 [11]: 0.83 nM
- IC50 [12]: 345 nM
- IC50 [13]: 397 nM
- IC50 [14]: 89 nM
- IC50 [15]: 5.1 nM
- IC50 [16]: 46 nM
- IC50 [17]: 1550 nM
- IC50 [18]: 82 nM
- IC50 [19]: 8.9 nM
- IC50 [20]: 55 nM
- IC50 [21]: 478 nM
- IC50 [22]: 36 nM
- IC50 [23]: 525 nM
- IC50 [24]: 109 nM

SMILES: COc1ccc(-c2cc(OC(C)=O)c3c(-c4cccs4)c(NC(=O)c4ccccc4Cl)oc3c2)cc1
- IC50 [1]: 86 nM
- IC50 [2]: 111 nM
- IC50 [3]: 6.3 nM
- IC50 [4]: 114 nM
- IC50 [5]: 9.2 nM
- IC50 [6]: 9.6 nM
- IC50 [7]: 6.4 nM
- IC50 [8]: 2.2 nM
- IC50 [9]: 0.88 nM
- IC50 [10]: 7.6 nM
- IC50 [11]: 0.82 nM
- IC50 [12]: 80 nM
- IC50 [13]: 102 nM
- IC50 [14]: 77 nM
- IC50 [15]: 3.9 nM
- IC50 [16]: 21 nM
- IC50 [18]: 73 nM
- IC50 [19]: 8.8 nM
- IC50 [20]: 91 nM
- IC50 [21]: 502 nM
- IC50 [22]: 37 nM
- IC50 [23]: 564 nM
- IC50 [24]: 602 nM

SMILES: COc1ccc(-c2cc(OC(C)=O)c3c(-c4cccs4)c(NC(=O)c4cccc(F)c4)oc3c2)cc1
- IC50 [1]: 87 nM
- IC50 [2]: 93 nM
- IC50 [3]: 5.3 nM
- IC50 [4]: 96 nM
- IC50 [5]: 25 nM
- IC50 [6]: 12 nM
- IC50 [7]: 6.6 nM
- IC50 [8]: 4.7 nM
- IC50 [9]: 6.3 nM
- IC50 [10]: 12 nM
- IC50 [11]: 3.7 nM
- IC50 [12]: 116 nM
- IC50 [13]: 1400 nM
- IC50 [14]: 81 nM
- IC50 [15]: 5.4 nM
- IC50 [16]: 48 nM
- IC50 [17]: 2210 nM
- IC50 [18]: 82 nM
- IC50 [19]: 11 nM
- IC50 [20]: 77 nM
- IC50 [21]: 504 nM
- IC50 [22]: 60 nM
- IC50 [23]: 559 nM
- IC50 [24]: 621 nM

SMILES: COc1ccc(-c2cc(OC(C)=O)c3c(-c4cccs4)c(N(C(C)=O)C(C)=O)oc3c2)cc1
- IC50 [1]: 102 nM
- IC50 [2]: 105 nM
- IC50 [3]: 10 nM
- IC50 [4]: 663 nM
- IC50 [5]: 582 nM
- IC50 [6]: 14 nM
- IC50 [7]: 11 nM
- IC50 [8]: 5.2 nM
- IC50 [9]: 4.5 nM
- IC50 [10]: 314 nM
- IC50 [11]: 4 nM
- IC50 [12]: 652 nM
- IC50 [13]: 1500 nM
- IC50 [14]: 87 nM
- IC50 [15]: 5.7 nM
- IC50 [16]: 597 nM
- IC50 [17]: 1740 nM
- IC50 [18]: 82 nM
- IC50 [19]: 14 nM
- IC50 [20]: 645 nM
- IC50 [21]: 677 nM
- IC50 [22]: 501 nM
- IC50 [23]: 874 nM
- IC50 [24]: 647 nM

Reference: BindingDB's records for doi:10.1016/j.ejmech.2020.112422 (China Medical University, 2020)
